From ChEMBL document CHEMBL1201862, “PubChem BioAssay data set” (2004)
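Where inhibition never reached the appropriate level, the endpoint shown equals the highest concentration tested. Otherwise, values were interpolated linearly from a five-concentration, 48-hour dose response in 96-well plates. GI50: concentration for 50% inhibition of growth.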 Active and inactive are the calls of the source. No stated cut-off is given here; in the data, active = GI50 up to about 1.1 µM and inactive = higher.

How the values were obtained:
Experiment in all cases: inhibition of tumour cell growth, NCI panel, 48 h
LXFL 529 = tested on: LXFL 529
DLD-1 = tested on: DLD-1
HOP-18 = tested on: HOP-18
DMS-273 = tested on: DMS-273
M19-MEL = tested on: M19-MEL
RXF 631 = tested on: RXF 631
XF498 = tested on: XF498

| Compound | GI50 (LXFL 529) | GI50 (DLD-1) | GI50 (HOP-18) | GI50 (DMS-273) | GI50 (M19-MEL) | GI50 (RXF 631) | GI50 (XF498) |
| --- | --- | --- | --- | --- | --- | --- | --- |
| CCOC(=O)Nc1ccc(S(=O)(=O)OC)cc1.CCOC(=O)Nc1ccc(S(=O)(=O)OC)cc1.Cc1cn(C2CC(O)C(CO)O2)c(=O)[nH]c1=O | > 100 µM (inactive) | 45.5 µM (inactive) | > 100 µM (inactive) | > 100 µM (inactive) | 49.8 µM (inactive) | > 100 µM (inactive) |  |
| [C-]#[N+]C(C)(C)C[C@H]1CC(C)C2CCC(C)C3([N+]#[C-])CCC(=C)C1[C@H]23 (some centres undefined) | 1.82 µM (inactive) | 0.269 µM (active) | 0.046 µM (active) | 0.286 µM (active) | 1.5 µM (inactive) | 1.86 µM (inactive) | 2.62 µM (inactive) |
| COC(=O)/C(=N\NC(=O)c1ccccc1O)C(C#N)c1ccccc1 (centres undefined) | 21.5 µM (inactive) | 24 µM (inactive) |  | 19 µM (inactive) | 30 µM (inactive) |  | 17.3 µM (inactive) |
| O=C(N/C(=C\c1cc(Cl)ccc1Cl)c1nc2ccccc2[nH]1)c1ccccc1 | 24.5 µM (inactive) | 17.1 µM (inactive) |  |  | 30.5 µM (inactive) | 22.3 µM (inactive) | 26.9 µM (inactive) |
| COc1cc2c(c(OC)c1OC)-c1ccc(SC)c(=O)cc1C(CC(=O)Oc1cccc([N+](=O)[O-])c1)C2 (centres undefined) | 0.619 µM (active) | 0.933 µM (active) | > 100 µM (inactive) | 0.364 µM (active) | 0.458 µM (active) | 0.502 µM (active) | 0.74 µM (active) |
| Cc1cc(N(CCC#N)CCC#N)ccc1/C=C1N=C(/C=C\c2ccccc2)N(c2ccc(C(=O)O)cc2)C\1=O | > 100 µM (inactive) | > 100 µM (inactive) | > 100 µM (inactive) |  | > 100 µM (inactive) | > 100 µM (inactive) |  |
| COc1cc(OC)c(OC)cc1/C=N/NC(=O)N/N=C/c1cc(OC)c(OC)cc1OC | > 100 µM (inactive) |  | > 100 µM (inactive) | > 100 µM (inactive) | > 100 µM (inactive) |  | 72.4 µM (inactive) |
| CCN(CC)/[N+]([O-])=N/OCC(C)O (centres undefined) |  |  |  | > 100 µM (inactive) | > 100 µM (inactive) | > 100 µM (inactive) | > 100 µM (inactive) |
| COC1OC(CO)C(O)C1N (centres undefined) | > 100 µM (inactive) | > 100 µM (inactive) | > 100 µM (inactive) |  |  | > 100 µM (inactive) |  |
| CCOCN1COCN(C)C1=O |  | > 100 µM (inactive) | > 100 µM (inactive) | > 100 µM (inactive) | > 100 µM (inactive) | > 100 µM (inactive) | > 100 µM (inactive) |
| Oc1ccc(I)c2cccnc12 | 4.11 µM (inactive) | 3.99 µM (inactive) | 8.07 µM (inactive) | 2.04 µM (inactive) | 14.4 µM (inactive) |  | 38.9 µM (inactive) |
| Cc1c2ccccc2c(C)c2c3c(ccc12)C(=O)C=CC3=O | 17.3 µM (inactive) | 18.5 µM (inactive) | 23.8 µM (inactive) | 64.7 µM (inactive) | 17.1 µM (inactive) |  | 17 µM (inactive) |
| CC1CCC[P+](Cc2ccccc2)(c2ccccc2)CC1 (centres undefined) | 15.8 µM (inactive) | > 100 µM (inactive) | 0.078 µM (active) | 33.6 µM (inactive) | 27.6 µM (inactive) | > 100 µM (inactive) | 21.4 µM (inactive) |
| CCOC(=O)c1nc2ccc(Cl)cc2c2c1Cc1ccccc1-2 | > 100 µM (inactive) | > 100 µM (inactive) | > 100 µM (inactive) | > 100 µM (inactive) | > 100 µM (inactive) |  | > 100 µM (inactive) |
| O=c1c2ccccc2n2n1CC(O)C2 (centres undefined) |  | > 100 µM (inactive) | > 100 µM (inactive) | > 100 µM (inactive) | > 100 µM (inactive) |  | > 100 µM (inactive) |
